Assay results published in publication PMC4873738, “A Small Molecule Inhibitor of PDK1/PLCγ1 Interaction Blocks Breast and Melanoma Cancer Cell Invasion” (Scientific Reports, 2016).

Biological target: T1, 3-phosphoinositide-dependent protein kinase 1 (PDK1) (Homo sapiens, UniProt O15530)
T1 construct: gene PDPK1; PH domain, amino-acids 411-552
T1 sequence (O15530 411-552): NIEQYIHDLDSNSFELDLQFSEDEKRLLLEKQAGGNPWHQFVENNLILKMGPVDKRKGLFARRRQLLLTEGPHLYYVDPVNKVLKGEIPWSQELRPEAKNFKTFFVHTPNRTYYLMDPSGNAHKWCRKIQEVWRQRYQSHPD
Assay: isothermal titration calorimetry with purified recombinant PH domain, […] °C, four experiments, n = […]
Assay type: binding

Kd: 109 ± 44 nM
Compound: O=P(O)(O)O[C@@H]1[C@@H](OP(=O)(O)O)[C@H](OP(=O)(O)O)[C@H](OCc2ccccc2)[C@H](OP(=O)(O)O)[C@H]1OP(=O)(O)O [2-O-Bn-InsP5, 2-O-benzyl-myo-inositol 1,3,4,5,6-pentakisphosphate]
